# Results from paper PMC7162861, “Synthesis, cytotoxicity, pharmacokinetic profile, binding with DNA and BSA of new imidazo[1,2-a]pyrazine-benzo[d]imidazol-5-yl hybrids” (Scientific Reports, 2020).
# Key:
# NCI-522 = experiment: NCI cytotoxicity screen, Non-Small Cell Lung Cancer panel; format: cell-based, human; details: Homo sapiens; NCI-522; single dose 10 µM; negative = lethal; read-out: Percent growth inhibition
# Description: (§1) Cytotoxicity was performed at National Cancer Institute (NCI), Bethesda, USA as per their protocols.
# NCI-H226 = experiment: as above; format: cell-based, human; details: Homo sapiens, single dose 10 µM, negative = lethal, read-out: Percent growth inhibition
# Description: as §1
# NCI-H23 = experiment: as above; format: cell-based, human; details: Homo sapiens, single dose 10 µM, negative = lethal, read-out: Percent growth inhibition
# Description: as §1
# NCI-H322M = experiment: as above; format: cell-based, human; details: Homo sapiens, single dose 10 µM, negative = lethal, read-out: Percent growth inhibition
# Description: as §1
# IGROV1 = experiment: NCI cytotoxicity screen, Ovarian Cancer panel; format: cell-based; details: Homo sapiens, IGROV-1, single dose 10 µM, negative = lethal, read-out: Percent growth inhibition
# Description: as §1
# NCI/ADR-RES = experiment: NCI cytotoxicity screen, Ovarian Cancer panel; format: cell-based; details: Homo sapiens, single dose 10 µM, negative = lethal, read-out: Percent growth inhibition
# Description: as §1
# OVCAR-4 = experiment: NCI cytotoxicity screen, Ovarian Cancer panel; format: cell-based; details: Homo sapiens; OVCAR-4; single dose 10 µM; negative = lethal; read-out: Percent growth inhibition
# Description: as §1
# OVCAR-5 = experiment: NCI cytotoxicity screen, Ovarian Cancer panel; format: cell-based; details: Homo sapiens, single dose 10 µM, negative = lethal, read-out: Percent growth inhibition
# Description: as §1
# OVCAR-8 = experiment: NCI cytotoxicity screen, Ovarian Cancer panel; format: cell-based; details: Homo sapiens, single dose 10 µM, negative = lethal, read-out: Percent growth inhibition
# Description: as §1
# SK-OV-3 = experiment: NCI cytotoxicity screen, Ovarian Cancer panel; format: cell-based; details: Homo sapiens, single dose 10 µM, negative = lethal, read-out: Percent growth inhibition
# Description: as §1
# OVCAR-3 = experiment: NCI cytotoxicity screen, Ovarian Cancer panel; format: cell-based, human; details: Homo sapiens; OVCAR-3; single dose 10 µM; negative = lethal; read-out: Percent growth inhibition
# Description: as §1
# BT-549 = experiment: NCI cytotoxicity screen, Breast Cancer panel; format: cell-based; details: Homo sapiens, single dose 10 µM, negative = lethal, read-out: Percent growth inhibition
# Description: as §1
# HS 578 T = experiment: NCI cytotoxicity screen, Breast Cancer panel; format: cell-based; details: Homo sapiens; HS 578T; single dose 10 µM; negative = lethal; read-out: Percent growth inhibition
# Description: as §1
# MCF7 = experiment: NCI cytotoxicity screen, Breast Cancer panel; format: cell-based; details: Homo sapiens, single dose 10 µM, negative = lethal, read-out: Percent growth inhibition
# Description: as §1
# MDA-MB-231/ATCC = experiment: NCI cytotoxicity screen, Breast Cancer panel; format: cell-based; details: Homo sapiens, MDA-MB-231, read-out: Percent growth inhibition
# Description: as §1
# MDA-MB-468 = experiment: NCI cytotoxicity screen, Breast Cancer panel; format: cell-based; details: Homo sapiens, single dose 10 µM, negative = lethal, read-out: Percent growth inhibition
# Description: as §1
# T-47D = experiment: NCI cytotoxicity screen, Breast Cancer panel; format: cell-based; details: Homo sapiens, T47D, T-47D; single dose 10 µM; negative = lethal; read-out: Percent growth inhibition
# Description: as §1
SMILES,inhibition at 10 µM (NCI-522),inhibition at 10 µM (NCI-H226),inhibition at 10 µM (NCI-H23),inhibition at 10 µM (NCI-H322M),inhibition at 10 µM (IGROV1),inhibition at 10 µM (NCI/ADR-RES),inhibition at 10 µM (OVCAR-4),inhibition at 10 µM (OVCAR-5),inhibition at 10 µM (OVCAR-8),inhibition at 10 µM (SK-OV-3),inhibition at 10 µM (OVCAR-3),inhibition at 10 µM (BT-549),inhibition at 10 µM (HS 578 T),inhibition at 10 µM (MCF7),inhibition at 10 µM (MDA-MB-231/ATCC),inhibition at 10 µM (MDA-MB-468),inhibition at 10 µM (T-47D),melting point
"c1ccc(-c2cn3ccnc3c(-c3ccc4c(c3)ncn4C3CCCCC3)n2)cc1 [Compound 9, 8-(1-cyclohexyl-1H-benzo[d]imidazol-5-yl)-6-phenylimidazo[1,2-a]pyrazine]",16.1%,< 1%,< 1%,2.91%,< 1%,< 1%,< 1%,< 1%,< 1%,< 1%,< 1%,0.43%,< 1%,15.8%,6.64%,< 1%,25.5%,195 to 198 °C
"COc1ccc(-c2cn3ccnc3c(-c3ccc4c(c3)ncn4C3CCCCC3)n2)cc1 [Compound 10, 8-(1-cyclohexyl-1H-benzo[d]imidazol-5-yl)-6-(4-methoxyphenyl)imidazo[1,2-a]pyrazine]",18.5%,< 1%,< 1%,< 1%,5.82%,1.93%,7.51%,1.45%,7.75%,5.37%,< 1%,8.55%,5.69%,19.7%,< 1%,< 1%,46.2%,196 to 199 °C
"c1ccc2c(-c3cn4ccnc4c(-c4ccc5c(c4)ncn5C4CCCCC4)n3)cccc2c1 [Compound 12, 8-(1-cyclohexyl-1H-benzo[d]imidazol-5-yl)-6-(naphthalen-1-yl)imidazo[1,2-a]pyrazine]",33%,17.9%,9.02%,8.38%,3.68%,11.8%,15%,< 1%,24%,< 1%,4.29%,1.57%,4.25%,35.7%,18.2%,5.23%,22%,199 to 202 °C
"Fc1ccc(-c2cn3ccnc3c(-c3ccc4c(c3)ncn4C3CCCCC3)n2)cc1 [Compound 13, 8-(1-cyclohexyl-1H-benzo[d]imidazol-5-yl)-6-(4-fluorophenyl)imidazo[1,2-a]pyrazine]",22.6%,7.09%,4.49%,< 1%,6.4%,2.36%,< 1%,< 1%,3.09%,< 1%,< 1%,< 1%,< 1%,9.59%,< 1%,< 1%,10.1%,187 to 189 °C
"c1cn2cc(-c3ccsc3)nc(-c3ccc4c(c3)ncn4C3CCCCC3)c2n1 [Compound 14, 8-(1-cyclohexyl-1H-benzo[d]imidazol-5-yl)-6-(thiophen-3-yl)imidazo[1,2-a]pyrazine]",10.4%,< 1%,8.6%,1.19%,19.1%,4.17%,< 1%,< 1%,6.38%,< 1%,< 1%,4.68%,6.34%,12%,7.65%,0.73%,> 50%,185 to 188 °C
"c1csc(-c2cn3ccnc3c(-c3ccc4c(c3)ncn4C3CCCCC3)n2)c1 [Compound 22, 8-(1-cyclohexyl-1H-benzo[d]imidazol-5-yl)-6-(thiophen-2-yl)imidazo[1,2-a]pyrazine]",14.6%,< 1%,5.56%,0.45%,< 1%,6.79%,< 1%,< 1%,< 1%,< 1%,0.91%,< 1%,< 1%,34%,7.47%,28.3%,37.3%,187 to 190 °C
"c1cn2cc(-c3ccc4c(c3)ncn4C3CCCCC3)nc(-c3ccc4c(c3)ncn4C3CCCCC3)c2n1 [Compound 30, 6,8-bis(1-cyclohexyl-1H-benzo[d]imidazol-5-yl)imidazo[1,2-a]pyrazine]",17.7%,13.1%,4.61%,< 1%,< 1%,4.12%,< 1%,< 1%,11.6%,11.8%,< 1%,5.9%,18.9%,23.9%,16.8%,3.28%,34.7%,205 to 209 °C
